Source: paper PMC3236199, “Development of Derivatives of 3, 3′-Diindolylmethane as Potent Leishmania donovani Bi-Subunit Topoisomerase IB Poisons” (PLoS ONE, 2011)

What was measured:
[1] = tested on: L. donovani AG83 amastigotes in Balb/c mouse peritoneal macrophages; experiment: In vitro macrophage infection, clearance of intracellular amastigotes; assay type: cell-based, Leishmania donovani; settings: 50 µM, 24 h, infected mouse macrophages
Source text: Balb/c mice, originally obtained from Jackson Laboratories, Bar Harbor, ME and reared in the institute animal facilities, were used for experimental purposes with prior approval of the animal ethics committee. Macrophages were isolated from mice 36 to 48 hr post injection (intraperitoneal) with 2% (w/v) hydrolyzed starch by peritoneal lavage with ice-cold phosphate-buffered saline. Cells were washed and cultured for 18–24 hr (for adherence) in RPMI 1640 (supplemented with 100 IU/ml of penicillin and […] of streptomycin) containing 10% (v/v) heat-inactivated FBS (RPMI-FBS) at 37°C with 5% CO2 in air on sterile cover glass (22 mm×22 mm) placed in disposable plates 35 mm in diameter (Tarsons India Ltd.). The culture medium was washed off and fresh RPMI-FBS was added. About 5×10^5 macrophages were maintained for proper distribution on cover glass. During the course of this study, macrophages were infected with promastigotes at a macrophage-to-parasite ratio of 1∶10 in RPMI-FBS for 6 hours to ensure entry of parasite. Following incubation, unphagocytosed parasites were removed by washing with medium, and cells were resuspended in RPMI-FBS at 37°C, 5% CO2 and then incubated for 6 hrs. Cultures were transferred to a CO2 incubator at 37°C and incubated for another 10–12 hr. Respective inhibitors were added at different concentrations (ranging from 5 µM to 50 µM) to infected macrophages and left for another 24 hr period. Cells were then fixed in methanol and stained with 2% Giemsa. Percentages of infected cells and total number of intracellular parasites were determined by manual counting in at least 200 cells using light microscope.
Primary macrophage cells were obtained from Balb/c mice peritoneal extrudates. After adherence and inactivation, these macrophage cells were infected with early passaged L. donovani AG83 promastigotes were infected to macrophages. After subsequent washing they were incubated with different concentrations (5, 10, 20 and 50 µM) of each of these inhibitors for 24 h (Fig. 3A). Macrophages were fixed and intracellular amastigotes were counted by Giemsa staining. […]
Figure 3 Effectiveness of clearance of internalized L. donovani (AG83) from in vitro infected mouse M [drawing 3] . […] Cells were fixed, stained with Giemsa and counted under bright field microscope. […] Experiments were carried out for three times and representative results are the mean ± S.D. (B) Growth of DIM resistant L. donovani axenic amastigotes were monitored in presence of increasing concentrations (2, 5, 10, 20 and 50 µM) of DIM, DPDIM, DMDIM and DMODIM for 12 h. […] Growth of the parasites treated with the compounds was expressed as percentage of the viable promastigotes compared with that of control. […]

[2] = tested on: wild type L. donovani AG83 promastigotes; experiment: DNA fragmentation assay (cell death detection ELISA), wild type; assay type: cell-based, Leishmania donovani; settings: 20 µM
Method: Leishmanial cells were cultured in 24-well plates and treated with 20 µM of DIM, DPDIM, DMDIM and DMODIM for different times. Samples were collected at requisite time points and subjected to measurement of DNA fragmentations. Cytoplasmic histone-associated DNA fragments (mononucleosome and oligonucleosomes) formed during apoptosis were detected using a cell death detection ELISA kit (Roche Biochemicals) by spectrophotometric measurement of microtiter plates in a Thermo MULTISKAN EX plate reader at 405 nm. The relative percentages (with respect to samples treated with micrococcal nuclease and normalized to percentage values) were plotted as units of time or drug concentrations as described previously.
The internucleosomal DNA digestion by an endogenous nuclease (genomic DNA fragmentation) is considered as a hallmark of apoptotic cell death. […] To investigate whether these derivatives also do the same, we performed the DNA fragmentation assay with wild type L. donovani AG83 promastigotes and DIM resistant parasites (Fig. 4) by ELISA as described in Materials and Methods. […] DNA fragmentation increased to 85%, 89%, 81% and 71% at 8 h of treatment in wild type parasites. The DIM resistant parasites (LdDR50) have much less effect in DNA fragmentation (13% at 6 h and 17% at 8 h) when treated with 20 µM DIM. On the other hand the extents of DNA fragmentations were 63%, 51% and 40% at 6 h treatment with DPDIM, DMDIM and DMODIM respectively. The extent of fragmentation increased to 82%, 74% and 65% after treatment for 8 h with the drugs as mentioned above.
Figure 4 DIM derivatives-induced fragmentation of genomic DNA in wild type and DIM resistant parasites. Relative percentage of DNA fragmentation measured by cell death detection ELISA kit in L. donovani promastigotes treated with DIM, DPDIM, DMDIM and DMODIM. The experiments were performed three times and representative data from one of these experiments as means ± SD.

Structure (SMILES)	efficiency of amastigote killing (clearance from macrophages) [1]	fragmentation of DNA ([2]; 6 h) [%]	fragmentation of DNA ([2]; 8 h) [%]
COc1ccc2[nH]cc(Cc3c[nH]c4ccc(OC)cc34)c2c1 [DMODIM, 5,5′-dimethoxy 3,3′-diindolyl methane]	about 85%	49	71
c1ccc2c(Cc3c[nH]c4ccccc34)c[nH]c2c1 [DIM, 3, 3′-diindolyl methane, reference compound]	91%	73	85
c1ccc(-c2[nH]c3ccccc3c2Cc2c(-c3ccccc3)[nH]c3ccccc23)cc1 [DPDIM, 2,2′-diphenyl 3,3′-diindolyl methane]	96%	79	89
Cc1[nH]c2ccccc2c1Cc1c(C)[nH]c2ccccc12 [DMDIM, 2,2′-dimethyl 3,3′-diindolyl methane]	92%	60	81
